Data reported in patent US8673851B2, “Synapse-specific proteins in glomeruli” (priority 2005, dated 2014).
Structures can show the parent of a compound that is named as a salt.

Experiments:
podocytes [1] = assay type: cell-based; settings: for Calcium content (Fluo4) / Intra-vesicle pH (Lysosensor green) / Membrane potential (RH-414 accumulation and discharge): during stimulated exocytosis
podocytes [2] = assay: [3H]-L-glutamate uptake; assay type: cell-based, mouse
Experimental: Podocytes were seeded at a density of 15,000 cells/well in 48-well plates, Two days later the culture medium was removed, the adherent washed two times with 0.5 mL/well of assay buffer (10 mM Tris-acetate, 128 mM NaCl, 10 mM D-glucose, 5 mM KCl, 1.5 mM NaH2PO4, 1 mM MgSO4, 1 mM CaCl2, pH 7.4) and then incubated for 15 min at 35° C. in assay buffer (0.3 mL/well) containing 100 nM [3H]-L-glutamate (Amersham, specific activity 47.0 Ci/mmol) with or without different concentrations of cold L-glutamate (from 1 to 1000 μM). Non-specific uptake was determined in parallel samples incubated in a Na+-free buffer (NaCl replaced by cholineCl). […]
In preliminary experiments it was established that the uptake of [3H]-Lglutamate was linear at least up to 15 min (not shown). Cells were then added with 0.3 mL/well of SDS and, after 2 hours on shaking plate, the well content was counted in 4 mL of Ultima Gold MV (Packard Bioscience, Groningen, the Netherlands) in an LKB 1214 Rackbeta liquid scintillation counter with a counting efficiency of about 60%.
Km and Vmax of L-glutamate uptake were determined by fitting the inhibition curve using the “homologous competitive binding curve” equation built into GrapPad Prism version 4.00 for Windows (GraphPad Software, San Diego Calif. USA). […]

cultured mouse podocytes = assay: α-latrotoxin-stimulated glutamate release (enzymatic GDH/NADH assay); assay type: cell-based
Experimental: α-Latrotoxin stimulated glutamate release was detected by an enzymatic assay based on the following reaction that occurs in presence of glutamate dehydrogenase (GDH): Glutamate−+NAD++H20 ketoglutarate2−+NADH+[…]H+.
Briefly, to this purpose, the same numbers of podocytes obtained from normal mouse glomeruli were plated and grown to semiconfluence. Before measurements, cells were washed and re-suspended for 1 hour at 37° C. in DME incubation buffer (NaCl 109.5 mM, KCl 5.3 mM, glucose 5.5 mM with MgCl2 1 mM, Hepes 20 mM). The medium was further supplemented with GDH (Sigma 60 U/ml) and NAD+ (Sigma 1 mM), and incubated for 5 min. Then, α-latrotoxin was added at subnanomolar (0.5 nM) or nanomolar (2.5 nM) concentration and spectrophotometric increase of optical density (O.D.) due to increase of NADH was monitored at 340 nm. 200 nM Bafilomycin A1 (Sigma), a V-ATPase inhibitor that dissipates the electrochemical proton gradient necessary for glutamate uptake and storage into vescicles43, was added for 30 min at 37° C. to control cell plates before α-latrotoxin stimulation.

primary mouse podocytes = assay: Phalloidin staining of the actin cytoskeleton; assay type: cell-based; settings: 24 h, 50 mM norketamine hydrochloride
Experimental: A Phalloidin staining of primary mouse podocytes after 24 h medium incubation. The actin cytoskeleton is intact. Rhodamine-phalloidin, 100×)
B Phalloidin staining of primary mouse podocytes after 24 h 50 mM norketamine hydrochloride incubation. […] (Rhodamine-phalloidin, 100×)
By immunohistochemistry, we have observed a variation of positivity, either increased or decreased, for other synaptic proteins, such as synapsin 1 (antibody from Abeam), and the ionotropic glutamate receptor NMDA-1 in a variety of human glomerulonephritis (FIG. 12).

cell membranes = settings: higher concentrations (>10 nM); cited from earlier work
cultured podocytes = assay: Rab3A and glutamate staining of cultured podocytes before and after α-latrotoxin stimulus; assay type: cell-based, mouse; settings: after nanomolar α-latrotoxin treatment
Source text: Panel b)-e): Rab3A (b, d) and glutamate (c, e) staining of cultured podocytes before (b, c) and after (d, e) nanomolar α-latrotoxin stimulus. Disappearance of most labeling from the processes of podocytes is evident after stimulation (indirect immunofluorescence, 450×).

primary podocytes = assay: Synaptic vesicle recycling with styryl dye FM1-43; assay type: cell-based
Source text: The recycling of synaptic vesicles in nerve terminals is a complex multistep process, whose investigation has been made feasible by the use of styryl dyes. These molecules, that reversibly insert into the surface of lipid membranes, have no fluorescent properties in aqueous solution, but become intensely fluorescent upon membrane binding, allowing a labelling of recycling synaptic vesicles that is easily detectable by fluorescence microscopy.

primary podocyte = assay: BDNF incubation, process formation (bright-field); assay type: cell-based; settings: 250 ng/ml, 20 hour incubation
Experimental: FIG. 18 • A) Bright-field image (200×) showing the in vivo appearance of a primary podocyte before BDNF treatment. • B) The same field is taken after 20 h of BDNF incubation. The cell has produced a number of processes starting from its body.
We have also observed that podocytes are sensitive to 250 ng/ml BDNF (Brain Derived Neurotrophic Factor) (Sigma): after 20 hour incubation with BDNF, in fact, the number of processes extending from the podocyte cell body are increased (FIG. 18).

Molecule: [Cl-].[K+] [KCl]
- Induction of stimulated exocytosis (podocytes [1]; 60 mM): can be induced
- Calcium content (Fluo4) (podocytes [1]): rapid variation in calcium content
- Intra-vesicle pH (Lysosensor green) (podocytes [1]): variation of intra-vesicle pH
- Membrane potential (RH-414 accumulation and discharge) (podocytes [1]): rapid variation of the membrane potential

Molecule: N[C@@H](CCC(=O)O)C(=O)O [L-glutamate]
- Km (podocytes [2]; Na+-dependent uptake, 100 nM [3H]-L-glutamate, 15 min at 35° C.): 83 µM
- Vmax of L-glutamate uptake (podocytes [2]; estimated, 15,000 cells/well seeded): about 2 pmol/min/well

Molecule: CO/C1=C\C(C)=C\[C@@H](C)[C@@H](O)[C@@H](C)C/C(C)=C/C=C/[C@H](OC)[C@@H]([C@@H](C)[C@@H](O)[C@H](C)[C@@]2(O)C[C@@H](O)[C@H](C)[C@@H](C(C)C)O2)OC1=O [bafilomycin, Bafilomycin A1]
- Glutamate release after α-latrotoxin (cultured mouse podocytes; bafilomycin added 30 min before latrotoxin (0.5 nM or 2.5 nM α-latrotoxin), 200 nM Bafilomycin A1): Absence of glutamate release

Molecule: NC1(c2ccccc2Cl)CCCCC1=O (centres unmarked) [norketamine hydrochloride]
- Actin cytoskeleton (rhodamine-phalloidin) (primary mouse podocytes): profound alteration of the actin cytoskeleton

Molecule: tetanus toxin
- Block of exocytotic events (podocytes [1]): can be blocked

Molecule: α-latrotoxin
- Damage to cell membranes (cell membranes): highly damaging for cell membranes
- Glutamate secretion (generation of NADH, optical density at 340 nm) (cultured mouse podocytes; 0.5 nM α-latrotoxin): continuous exocytosis
- Glutamate secretion (generation of NADH, optical density at 340 nm) (cultured mouse podocytes; 2.5 nM α-latrotoxin): burst of neurotransmitter release, followed by steady state
- Glutamate labeling of cell processes by immunohistochemistry (cultured podocytes): disappearance of most glutamate from cell processes
- Rab3A distribution by immunohistochemistry (cultured podocytes): redistribution of Rab3A
- Calcium content (Fluo4) (podocytes [1]): rapid variation in calcium content
- Intra-vesicle pH (Lysosensor green) (podocytes [1]): variation of intra-vesicle pH
- Membrane potential (RH-414 accumulation and discharge) (podocytes [1]): rapid variation of the membrane potential
- FM1-43 dye uptake (primary podocytes; a few seconds after a first α-latrotoxin stimulus): accumulate the styryl dye FM1-43
- FM1-43 dye release (primary podocytes; after a second α-latrotoxin stimulation): almost completely discharge the dye

B1: BDNF: Brain Derived Neurotrophic Factor (Sigma) (protein, UniProt P23560 19-247, looked up)
Neurotrophic factor BDNF …: APMKEANIRGQGGLAYPGVRTHGTLESVNGPKAGSRGLTSLADTFEHVIEELLDEDQKVRPNEENNKDADLYTSRVMLSSQVPLEPPLLFLLEEYKNYLDAANMSMRVRRHSDPARRGELSVCDSISEWVTAADKKTAVDMSGGTVTVLEKVPVSKGQLKQYFYETKCNPMGYTKEGCRGIDKRHWNSQCRTTQSYVRALTMDSKKRIGWRFIRIDTSCVCTLTIKRGR
- Number of processes extending from the podocyte cell body (primary podocyte): increased
